Measured values: ChEMBL document CHEMBL5120882, “Medicinal Chemistry Perspective on Targeting Mono-ADP-Ribosylating PARPs with Small Molecules” (J Med Chem, 2022)

Experiments:
[1] = molecular target: T1, Protein mono-ADP-ribosyltransferase PARP16 (Homo sapiens, UniProt Q8N5Y8); experiment: Inhibition of PARP16 (unknown origin) using IRE-1 as substrate incubated for 1 hr by chemiluminescence assay
T1 sequence (Q8N5Y8 whole entry): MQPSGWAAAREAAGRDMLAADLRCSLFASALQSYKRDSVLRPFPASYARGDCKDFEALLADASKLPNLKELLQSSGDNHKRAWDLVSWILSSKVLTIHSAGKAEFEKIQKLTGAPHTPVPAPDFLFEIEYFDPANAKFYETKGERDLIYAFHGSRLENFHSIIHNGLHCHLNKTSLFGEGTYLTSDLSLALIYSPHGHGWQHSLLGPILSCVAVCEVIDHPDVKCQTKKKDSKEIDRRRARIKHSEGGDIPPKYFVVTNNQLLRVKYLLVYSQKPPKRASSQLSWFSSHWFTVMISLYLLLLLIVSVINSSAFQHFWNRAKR

[2] = molecular target: T2, Protein mono-ADP-ribosyltransferase PARP3 (Homo sapiens, UniProt Q9Y6F1); experiment: Inhibition of recombinant human PARP3 using IRE-1 as substrate incubated for 1 hr by chemiluminescence assay
T2 sequence (Q9Y6F1 whole entry): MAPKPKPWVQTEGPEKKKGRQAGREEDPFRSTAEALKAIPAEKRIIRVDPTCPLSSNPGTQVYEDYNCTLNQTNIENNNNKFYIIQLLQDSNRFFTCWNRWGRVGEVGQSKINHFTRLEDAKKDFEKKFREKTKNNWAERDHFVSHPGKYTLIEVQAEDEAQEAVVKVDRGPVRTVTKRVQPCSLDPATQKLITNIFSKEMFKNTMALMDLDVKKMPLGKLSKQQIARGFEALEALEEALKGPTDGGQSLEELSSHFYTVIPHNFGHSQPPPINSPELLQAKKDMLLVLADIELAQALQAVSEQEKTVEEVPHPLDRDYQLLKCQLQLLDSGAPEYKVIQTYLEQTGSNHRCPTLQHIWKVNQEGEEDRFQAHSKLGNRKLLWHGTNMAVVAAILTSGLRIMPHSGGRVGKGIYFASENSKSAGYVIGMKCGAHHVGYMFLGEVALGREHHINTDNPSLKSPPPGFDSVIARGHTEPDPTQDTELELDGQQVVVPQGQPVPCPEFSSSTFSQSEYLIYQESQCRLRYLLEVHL

[3] = molecular target: Protein mono-ADP-ribosyltransferase PARP9 (Homo sapiens, UniProt Q8IXQ6); experiment: Inhibition of PARP9 (unknown origin)
[4] = system: NCI-H1373; experiment: Antitumor activity against human NCI-H1373 cells in xenograft model assessed as tumor growth inhibition relative to control; format: functional; set-up: scale not given: the % may be the effect or the level left

| IC50 [1] [µM] | IC50 [2] [µM] | IC50 [3] [µM] | Compound | Activity [4] [%] |
| --- | --- | --- | --- | --- |
| 0.427 | 3.4 |  | Nc1ncc2c(n1)CNC(=O)c1[nH]c(Br)c(Br)c1-2 |  |
|  |  | > 50 | C[C@@H](COCCC(=O)N1CCN(c2ncc(C(F)(F)F)cn2)CC1)Nc1cn[nH]c(=O)c1C(F)(F)F [ATAMPARIB] | 49 |
